Results from ChEMBL document CHEMBL3885861, “Open TG-GATES”.

Species: Rattus norvegicus
Test: Open TG-GATES - Regimen: Single
Assay type: toxicity, organism-based, Sprague-Dawley
Set-up: regimen Single, gender Male, age 6 weeks
Settings: in vivo, po, 0 mg/kg, route gavage, dose level Control; for APTT / Bas / Eos / Fbg / Hb / Ht / Lym / MCH / MCHC / MCV / Mono / Neu / PT / Plat / RBC / Ret / WBC: tissue Blood; for KIDNEY_L / KIDNEY_R / KIDNEY_TOTAL: tissue Kidney; for LIVER: tissue Liver; for A/G / ALP / ALT / AST / BUN / CRE / Ca / Cl / DBIL / GLC / IP / K / LDH / Na / PL / RALB / TBIL / TC / TG / TP / gamma-GTP: tissue Plasma

Work on CCOC(=O)CCC(=O)O[C@H]1[C@H](O[C@@H]2[C@@H](C)[C@H](O[C@H]3C[C@@](C)(OC)[C@@H](O)[C@H](C)O3)[C@@H](C)C(=O)O[C@H](CC)[C@@](C)(O)[C@H](O)[C@@H](C)C(=O)[C@H](C)C[C@@]2(C)O)O[C@H](C)C[C@@H]1N(C)C [ERYTHROMYCIN ETHYLSUCCINATE] yielded a TERMINAL_BW (3 h) of 215 g, an APTT (3 h) of 23.2 s and a Bas (3 h) of 0%. For the same compound, the Eos (3 h) was 1%, the Fbg (3 h) was 292.2 mg/dL and the Hb (3 h) was 13.2 g/dL. The Ht (3 h) was 40.2%, the Lym (3 h) was 81.2% and the MCH (3 h) was 20.8 pg. For the same compound, the MCHC (3 h) was 32.9%, the MCV (3 h) was 63.2 fL and the Mono (3 h) was 2%. The Neu (3 h) was 15%, the PT (3 h) was 16.3 s and the Plat (3 h) was 112.7 x10_4/uL. It also gave an RBC (3 h) of 635.6 x10_4/ul, a Ret (3 h) of 7.9% and a WBC (3 h) of 75.2 x10_2/uL. It also gave a KIDNEY_L (3 h) of 0.9 g, a KIDNEY_R (3 h) of 0.9 g and a KIDNEY_TOTAL (3 h) of 1.8 g. The LIVER (3 h) was 9.7 g, the A/G (3 h) was 1.2 and the ALP (3 h) was 1728.4 IU/L. For the same compound, the ALT (3 h) was 40.6 IU/L, the AST (3 h) was 76.6 IU/L and the BUN (3 h) was 14.6 mg/dL. The CRE (3 h) was 0.2 mg/dL, the Ca (3 h) was 10.4 mg/dL and the Cl (3 h) was 103.2 meq/L. It also gave a DBIL (3 h) of 0 mg/dL, a GLC (3 h) of 188.2 mg/dL and an IP (3 h) of 8.3 mg/dL. The K (3 h) was 3.9 meq/L, the LDH (3 h) was 159.2 IU/L and the Na (3 h) was 139.4 meq/L. For the same compound, the PL (3 h) was 140 mg/dL, the RALB (3 h) was 2.9 g/dL and the TBIL (3 h) was 0.012 mg/dL. For the same compound, the TC (3 h) was 84.8 mg/dL, the TG (3 h) was 55.4 mg/dL and the TP (3 h) was 5.4 g/dL. It also gave a gamma-GTP (3 h) of 1 IU/L, a TERMINAL_BW (6 h) of 212.6 g and an APTT (6 h) of 22.9 s. For the same compound, the Bas (6 h) was 0%, the Eos (6 h) was 0.6% and the Fbg (6 h) was 321.8 mg/dL. The Hb (6 h) was 13.8 g/dL, the Ht (6 h) was 42.2% and the Lym (6 h) was 75.8%. The MCH (6 h) was 21.3 pg, the MCHC (6 h) was 32.8% and the MCV (6 h) was 65 fL. For the same compound, the Mono (6 h) was 2.4%, the Neu (6 h) was 20.2% and the PT (6 h) was 15.8 s. For the same compound, the Plat (6 h) was 121 x10_4/uL, the RBC (6 h) was 651 x10_4/ul and the Ret (6 h) was 7.6%. For the same compound, the WBC (6 h) was 111.5 x10_2/uL, the KIDNEY_L (6 h) was 0.9 g and the KIDNEY_R (6 h) was 0.9 g. It also gave a KIDNEY_TOTAL (6 h) of 1.9 g, an LIVER (6 h) of 9.3 g and an A/G (6 h) of 1.2. For the same compound, the ALP (6 h) was 1491 IU/L, the ALT (6 h) was 37.4 IU/L and the AST (6 h) was 70.6 IU/L. The BUN (6 h) was 9.6 mg/dL, the CRE (6 h) was 0.2 mg/dL and the Ca (6 h) was 10.3 mg/dL. It also gave a Cl (6 h) of 103.4 meq/L, a DBIL (6 h) of 0.002 mg/dL and a GLC (6 h) of 190.6 mg/dL. It also gave an IP (6 h) of 8.9 mg/dL, a K (6 h) of 4.1 meq/L and an LDH (6 h) of 138 IU/L. For the same compound, the Na (6 h) was 139.6 meq/L, the PL (6 h) was 139.8 mg/dL and the RALB (6 h) was 3 g/dL. It also gave a TBIL (6 h) of 0.02 mg/dL, a TC (6 h) of 78.8 mg/dL and a TG (6 h) of 67.6 mg/dL. The TP (6 h) was 5.5 g/dL, the gamma-GTP (6 h) was 1.2 IU/L and the TERMINAL_BW (9 h) was 212 g. The APTT (9 h) was 22.4 s, the Bas (9 h) was 0% and the Eos (9 h) was 0.6%. It also gave a Fbg (9 h) of 319.6 mg/dL, a Hb (9 h) of 13 g/dL and a Ht (9 h) of 39.6%. For the same compound, the Lym (9 h) was 81.2%, the MCH (9 h) was 20.4 pg and the MCHC (9 h) was 32.8%. For the same compound, the MCV (9 h) was 62.2 fL, the Mono (9 h) was 1.8% and the Neu (9 h) was 15.4%. The PT (9 h) was 15.9 s, the Plat (9 h) was 118.3 x10_4/uL and the RBC (9 h) was 636.4 x10_4/ul. For the same compound, the Ret (9 h) was 7.4%, the WBC (9 h) was 106.6 x10_2/uL and the KIDNEY_L (9 h) was 1 g. For the same compound, the KIDNEY_R (9 h) was 1 g, the KIDNEY_TOTAL (9 h) was 1.9 g and the LIVER (9 h) was 9 g. The A/G (9 h) was 1.2, the ALP (9 h) was 1414 IU/L and the ALT (9 h) was 38.4 IU/L. It also gave an AST (9 h) of 69.8 IU/L, a BUN (9 h) of 10.8 mg/dL and a CRE (9 h) of 0.2 mg/dL. It also gave a Ca (9 h) of 10.5 mg/dL, a Cl (9 h) of 103.6 meq/L and a DBIL (9 h) of 0 mg/dL. For the same compound, the GLC (9 h) was 190.8 mg/dL, the IP (9 h) was 9.1 mg/dL and the K (9 h) was 4.2 meq/L. For the same compound, the LDH (9 h) was 161.4 IU/L, the Na (9 h) was 139.2 meq/L and the PL (9 h) was 124.4 mg/dL. The RALB (9 h) was 2.9 g/dL, the TBIL (9 h) was 0.016 mg/dL and the TC (9 h) was 71.6 mg/dL. For the same compound, the TG (9 h) was 51.6 mg/dL, the TP (9 h) was 5.4 g/dL and the gamma-GTP (9 h) was 1 IU/L. The TERMINAL_BW (24 h) was 227 g, the APTT (24 h) was 20.9 s and the Bas (24 h) was 0%. It also gave an Eos (24 h) of 1%, a Fbg (24 h) of 327.8 mg/dL and a Hb (24 h) of 13.5 g/dL. The Ht (24 h) was 40.3%, the Lym (24 h) was 83.8% and the MCH (24 h) was 21.4 pg. For the same compound, the MCHC (24 h) was 33.4%, the MCV (24 h) was 64.2 fL and the Mono (24 h) was 3.4%. It also gave a Neu (24 h) of 11%, a PT (24 h) of 15.9 s and a Plat (24 h) of 111.9 x10_4/uL. The RBC (24 h) was 629.4 x10_4/ul, the Ret (24 h) was 7.8% and the WBC (24 h) was 111 x10_2/uL. The KIDNEY_L (24 h) was 1 g, the KIDNEY_R (24 h) was 1 g and the KIDNEY_TOTAL (24 h) was 2 g. For the same compound, the LIVER (24 h) was 10.5 g, the A/G (24 h) was 1.2 and the ALP (24 h) was 1574.2 IU/L. For the same compound, the ALT (24 h) was 37.6 IU/L, the AST (24 h) was 66.4 IU/L and the BUN (24 h) was 17.8 mg/dL. The CRE (24 h) was 0.1 mg/dL, the Ca (24 h) was 10.5 mg/dL and the Cl (24 h) was 106.6 meq/L. It also gave a DBIL (24 h) of 0 mg/dL, a GLC (24 h) of 211.4 mg/dL and an IP (24 h) of 8.5 mg/dL. It also gave a K (24 h) of 4.3 meq/L, an LDH (24 h) of 191.4 IU/L and a Na (24 h) of 143 meq/L. The PL (24 h) was 156.2 mg/dL, the RALB (24 h) was 3 g/dL and the TBIL (24 h) was 0.024 mg/dL. For the same compound, the TC (24 h) was 81.4 mg/dL, the TG (24 h) was 119.4 mg/dL and the TP (24 h) was 5.4 g/dL. For the same compound, the gamma-GTP (24 h) was 1.2 IU/L.
